From US20080271368A1, “METHOD OF PROMOTING PLANT GROWTH AND IMPROVING PLANT QUALITY AND GROWTH-PROMOTING AGENT AND QUALITY-IMPROVING AGENT TO BE USED IN THE METHOD” (priority 2006, published 2008)

Test system: rice seedlings
Assay: Rice yield test
Format: in vivo
Conditions: for Average yield: average of nine bunches
Protocol: A predetermined amount of chemicals was weighed and embedded into soil together with roots of rice seedlings when the seedlings are planted in a paddy field in early May. […] Nine bunches were planted per one test field. After that, usual wet-rice culture was carried out until harvesting in early October. The rice crop was dried and weighed to determine the yield. Good unhusked rice obtained by wind selection was used as the test sample.

O=P([O-])(O)O.O=P([O-])(O)O.[Ca+2] [Calcium dihydrogen phosphate]
Average yield (treated amount 1 g per 1 m^2, good unhusked rice): 196 g
Average yield (%) (treated amount 1 g per 1 m^2, untreated = 100): (90) %
Average yield (treated amount 10 g per 1 m^2, good unhusked rice): 230 g
Average yield (%) (treated amount 10 g per 1 m^2, untreated = 100): (105) %
